Source: paper PMC9127657 (Bioorganic & medicinal chemistry, 2021)

Tested on: HIV-1 NL4–3 Nanoluc-sec virus
Test: not given
Type: cell-based
Settings: concentration that inhibits HIV-1NL4–3 nanoluc-sec infection of MT-4 cells by 50%; three days

Row | Molecule | EC50
1 | (S)-2-((3-(2,3-dihydro-1H-pyrrolo[3,4-c]pyridine-2-carbonyl)phenyl) sulfonamido)-N-(4-methoxyphenyl)-N-methyl-3-phenylpropanamide [Compound I-10c] | > 8.76 µM

Same assay, conditions: tested concentration 5 μg/mL, MT-4 cells

Row | Molecule | antiviral activity at the tested concentration
2 | COc1ccc(N(C)C(=O)[C@H](Cc2ccccc2)NS(=O)(=O)CC(=O)n2ncc3ccccc32)cc1 [II-13f, (S)-2-((2-(1H-indazol-1-yl)-2-oxoethyl)sulfonamido)-N-(4-methoxyphenyl)-N-methyl-3-phenylpropeanamide] | lost their activity
3 | COc1ccc(N(C)C(=O)[C@H](Cc2ccccc2)NC(=O)c2cccc(S(=O)(=O)N3CCc4ccccc43)c2)cc1 [Compound V-25d, (S)-3-(indolin-1-ylsulfonyl)-N-(1-((4-methoxyphenyl)(methyl)amino)-1-oxo-3-phenylpropan-2-yl)benzamide] | loss of antiviral activity
4 | COc1ccc(N(C)C(=O)[C@H](Cc2ccccc2)NS(=O)(=O)CC(=O)N2CCc3cc([N+](=O)[O-])ccc32)cc1 [II-13 g, (S)-N-(4-methoxyphenyl)-N-methyl-2-((2-(5-nitroindolin-1-yl)-2-oxoethyl)sulfonamido)-3-phenylpropanamide] | lost their activity
5 | COc1ccc(N(C)C(=O)[C@H](Cc2ccccc2)NS(=O)(=O)CC(=O)Nc2cc(F)cc(F)c2)cc1 [II-13e, (S)-2-((2-((3,5-difluorophenyl)amino)-2-oxoethyl)sulfonamido)-N-(4-methoxyphenyl)-N-methyl-3-phenylpropanamide] | lost their activity
6 | COc1ccc(N(C)C(=O)[C@H](Cc2ccccc2)NC(=O)c2cccc(S(=O)(=O)N3CCc4cc(OC)ccc43)c2)cc1 [Compound V-25e, (S)-3-((5-methoxyindolin-1-yl)sulfonyl)-N-(1-((4-methoxyphenyl) (methyl)amino)-1-oxo-3-phenylpropan-2-yl)benzamide] | loss of antiviral activity
7 | COc1ccc(N(C)C(=O)[C@H](Cc2ccccc2)NS(=O)(=O)CC(=O)N2CCc3cc(OC)ccc32)cc1 [II-13d, (S)-2-((2-(5-methoxyindolin-1-yl)-2-oxoethyl)sulfonamido)-N-(4-methoxyphenyl)-N-methyl-3-phenylpropanamide] | lost their activity
8 | COc1ccc(N(C)C(=O)[C@H](Cc2ccccc2)NC(=O)c2cccc(S(=O)(=O)Nc3cc(F)cc(F)c3)c2)cc1 [V-25 h, (S)-3-(N-(3,5-difluorophenyl)sulfamoyl)-N-(1-((4-methoxyphenyl)(methyl)amino)-1-oxo-3-phenylpropan-2-yl)benzamide] | loss of antiviral activity
9 | COc1ccc(N(C)C(=O)[C@H](Cc2ccccc2)NC(=O)c2cccc(S(=O)(=O)N3CCc4cc([N+](=O)[O-])ccc43)c2)cc1 [Compound V-25f, (S)-N-(1-((4-methoxyphenyl)(methyl)amino)-1-oxo-3-phenylpropan-2-yl)-3-((5-nitroindolin-1-yl)sulfonyl)benzamide] | loss of antiviral activity
10 | COc1ccc(N(C)C(=O)[C@H](Cc2ccccc2)NS(=O)(=O)CC(=O)Nc2ccc3ncsc3c2)cc1 [II-13b, (S)-2-((2-(benzo[d]thiazol-6-ylamino)-2-oxoethyl)sulfonamido)-N-(4-methoxyphenyl)-N-methyl-3-phenylpropanamide] | lost their activity
11 | COc1ccc(N(C)C(=O)[C@H](Cc2ccccc2)NC(=O)c2cccc(S(=O)(=O)Nc3ccc(C(F)(F)F)cc3)c2)cc1 [Compound V-25j, (S)-N-(1-((4-methoxyphenyl)(methyl)amino)-1-oxo-3-phenylpropan-2-yl)-3-(N-(4-(trifluoromethyl)phenyl)sulfamoyl)benzamide] | loss of antiviral activity

Tested on: MT-4 cells
Test: Cytotoxicity assay in MT-4 cells
Type: cell-based
Settings: concentration required to reduce the viability of uninfected MT-4 cells by 50%; three days

Row | Molecule | CC50
12 | (S)-2-((3-(2,3-dihydro-1H-pyrrolo[3,4-c]pyridine-2-carbonyl)phenyl) sulfonamido)-N-(4-methoxyphenyl)-N-methyl-3-phenylpropanamide [Compound I-10c] | > 8.76 µM

Tested on: not listed separately
Test: Cytotoxicity assay in MT-4 cells
Type: cell-based
Settings: human, uninfected MT-4 cells

Row | Molecule | CC50 at 3 days
13 | COc1ccc(N(C)C(=O)[C@H](Cc2ccccc2)NC(=O)C(=O)Nc2ccc([N+](=O)[O-])cc2)cc1 [III-16f, (S)-N1-(1-((4-methoxyphenyl)(methyl)amino)-1-oxo-3-phenylpropan-2-yl)–N2-(4-nitrophenyl)oxalamide] | > 10.2 µM
